Data set [1] can be described thus: The drug is tested on Z-028 corresponding to mouse gut metagenome with ENA study accession number: PRJEB37062 and ENA sample accession number: ERS12561827 for biotransformation under anaerobic condition. The drug concentrations were measured over 9 timepoints collected between 0 and 24 hours of incubation by liquid-chromatography-coupled mass spectrometry (LC–MS). The conditions noted are these: 2 µM.

A short description of data set [2]: The drug is tested on Z-026 corresponding to metagenome with ENA study accession number: PRJEB37062 and ENA sample accession number: ERS12561825 for biotransformation under anaerobic condition. The drug concentrations were measured over 9 timepoints collected between 0 and 24 hours of incubation by liquid-chromatography-coupled mass spectrometry (LC–MS). The conditions noted are these: 2 µM.

Data set [3] is described as follows: The drug is tested on Z-019 corresponding to rat gut metagenome with ENA study accession number: PRJEB37062 and ENA sample accession number: ERS12561818 for biotransformation under anaerobic condition. The drug concentrations were measured over 9 timepoints collected between 0 and 24 hours of incubation by liquid-chromatography-coupled mass spectrometry (LC–MS). The conditions noted are these: 2 µM.

The nature of data set [4]: The drug is tested on Z-018 corresponding to pig gut metagenome with ENA study accession number: PRJEB37062 and ENA sample accession number: ERS12561817 for biotransformation under anaerobic condition. The drug concentrations were measured over 9 timepoints collected between 0 and 24 hours of incubation by liquid-chromatography-coupled mass spectrometry (LC–MS). The conditions noted are these: 2 µM.

Data set [5] in a line: The drug is tested on Z-017 corresponding to mouse gut metagenome with ENA study accession number: PRJEB37062 and ENA sample accession number: ERS12561816 for biotransformation under anaerobic condition. The drug concentrations were measured over 9 timepoints collected between 0 and 24 hours of incubation by liquid-chromatography-coupled mass spectrometry (LC–MS). The conditions noted are these: 2 µM.

A short description of data set [6]: The drug is tested on Z-014 corresponding to rat gut metagenome with ENA study accession number: PRJEB37062 and ENA sample accession number: ERS12561814 for biotransformation under anaerobic condition. The drug concentrations were measured over 9 timepoints collected between 0 and 24 hours of incubation by liquid-chromatography-coupled mass spectrometry (LC–MS). To be noted: 2 µM.

The nature of data set [7]: The drug is tested on Z-008 corresponding to metagenome with ENA study accession number: PRJEB37062 and ENA sample accession number: ERS12561808 for biotransformation under anaerobic condition. The drug concentrations were measured over 9 timepoints collected between 0 and 24 hours of incubation by liquid-chromatography-coupled mass spectrometry (LC–MS). The conditions noted are these: 2 µM.

The nature of data set [8]: The drug is tested on Z-003 corresponding to pig gut metagenome with ENA study accession number: PRJEB37062 and ENA sample accession number: ERS12561803 for biotransformation under anaerobic condition. The drug concentrations were measured over 9 timepoints collected between 0 and 24 hours of incubation by liquid-chromatography-coupled mass spectrometry (LC–MS). The conditions noted are these: 2 µM.

The nature of data set [9]: The drug is tested on Z-002 corresponding to rabbit gut metagenome with ENA study accession number: PRJEB37062 and ENA sample accession number: ERS12561802 for biotransformation under anaerobic condition. The drug concentrations were measured over 9 timepoints collected between 0 and 24 hours of incubation by liquid-chromatography-coupled mass spectrometry (LC–MS). To be noted: 2 µM.

A short description of data set [10]: The drug is tested on WLS-220 corresponding to human gut metagenome with ENA study accession number: PRJEB37062 and ENA sample accession number: ERS12561769 for biotransformation under anaerobic condition. The drug concentrations were measured over 9 timepoints collected between 0 and 24 hours of incubation by liquid-chromatography-coupled mass spectrometry (LC–MS). To be noted: 2 µM.

The nature of data set [11]: The drug is tested on WLS-086 corresponding to human gut metagenome with ENA study accession number: PRJEB37062 and ENA sample accession number: ERS12561752 for biotransformation under anaerobic condition. The drug concentrations were measured over 9 timepoints collected between 0 and 24 hours of incubation by liquid-chromatography-coupled mass spectrometry (LC–MS). The conditions noted are these: 2 µM.

A short description of data set [12]: The drug is tested on WLS-006 corresponding to human gut metagenome with ENA study accession number: PRJEB37062 and ENA sample accession number: ERS12561741 for biotransformation under anaerobic condition. The drug concentrations were measured over 9 timepoints collected between 0 and 24 hours of incubation by liquid-chromatography-coupled mass spectrometry (LC–MS). The conditions noted are these: 2 µM.

For data set [13] the following is noted: human gut metagenome, 24 h, 2 µM.
For data set [14] the following is noted: human gut metagenome, 24 h, 2 µM. The source holds these as a separate data set.
For data set [15] the following is noted: human gut metagenome, 24 h, 2 µM. The source holds these as a separate data set.
For data set [16] the following is noted: human gut metagenome, 24 h, 2 µM. The source holds these as a separate data set.
For data set [17] the following is noted: human gut metagenome, 24 h, 2 µM. The source holds these as a separate data set.
The conditions of data set [18]: human gut metagenome, 24 h, 2 µM. The source holds these as a separate data set.
For data set [19] the following is noted: human gut metagenome, 24 h, 2 µM. This is another data set of the same source.
The conditions of data set [20]: human gut metagenome, 24 h, 2 µM. The source holds these as a separate data set.
Note: call rule not given here.

`CC(C)OC(=O)C(C)(C)Oc1ccc(C(=O)c2ccc(Cl)cc2)cc1` [FENOFIBRATE]: the “Bacterial Biotransformation” value in data set [1] is recorded as “Compound metabolized”; in data set [2] it was “Compound metabolized”; in data set [3] it was “Compound NOT metabolized”; in [4], “Compound metabolized”; in data set [5], “Compound metabolized”; in data set [6] it was “Compound metabolized”. In addition, the “Bacterial Biotransformation” value in data set [7], in data set [8], in [9], in data set [10], in data set [11] and in data set [12] was “Compound metabolized” in each case. Further, the “Bacterial Biotransformation” value in [13] is listed as “Compound metabolized”; in data set [14], “Compound metabolized”; in data set [15], “Compound NOT metabolized”; in data set [16] it was “Compound metabolized”; in [17] it was “Compound NOT metabolized”; in [18] it was “Compound NOT metabolized”. Moreover, the “Bacterial Biotransformation” value in data set [19] and in data set [20] was “Compound metabolized” each time.

Take `O=C1NCC2(CCN(CCc3ccccc3)CC2)O1` [FENSPIRIDE]: the “Bacterial Biotransformation” value in data set [1], in data set [2], in data set [3], in data set [4], in data set [5] and in data set [6] was “Compound NOT metabolized” throughout. Further, the “Bacterial Biotransformation” value in data set [7] is reported as “Compound NOT metabolized”; in data set [8] it was “Compound NOT metabolized”; in [9], “Compound metabolized”; in data set [10] it was “Compound NOT metabolized”; in [11], “Compound metabolized”; in [12], “Compound NOT metabolized”. The “Bacterial Biotransformation” value in data set [13], in data set [14], in data set [15], in data set [16], in data set [17] and in data set [18] was “Compound NOT metabolized” throughout. Further, the figures for the “Bacterial Biotransformation” value in data set [19] and in data set [20] were “Compound metabolized” and “Compound NOT metabolized”, respectively.

Take `OC(Cn1cncn1)(Cn1cncn1)c1ccc(F)cc1F` [FLUCONAZOLE]: the “Bacterial Biotransformation” value in data set [1], in [2], in data set [3], in data set [4], in data set [5] and in data set [6] was “Compound NOT metabolized” each time. Also, the “Bacterial Biotransformation” value was “Compound NOT metabolized” in data set [7]; “Compound metabolized” in data set [8]; “Compound metabolized” in data set [9]; “Compound NOT metabolized” in [10]; “Compound metabolized” in data set [11]; “Compound metabolized” in data set [12]. The “Bacterial Biotransformation” value in data set [13] was “Compound NOT metabolized”; in [14] it was “Compound metabolized”; in [15] it was “Compound NOT metabolized”; in data set [16], “Compound NOT metabolized”; in [17], “Compound metabolized”; in data set [18] it was “Compound NOT metabolized”. Besides, the “Bacterial Biotransformation” value in [19] and in [20] was “Compound metabolized” throughout.

For the origin of these results see ChEMBL document CHEMBL5724914, “Linking interpersonal differences in gut microbiota composition and drug biotransformation activity” (2024).
